pKi: −log10 of the molar value.
Key:
hCA XII [1] = target: T1, hCA XII (Homo sapiens, UniProt O43570); assay: stop-flow CA inhibition assay, hCA XII; conditions: for S(I/XII) selectivity: ratio Ki hCA I / Ki hCA XII; for S(II/XII) selectivity: ratio Ki hCA II / Ki hCA XII
hCA I = hCA I (Homo sapiens, UniProt P00915); assay: biochemical
hCA IX [2] = target: T2, hCA IX (Homo sapiens, UniProt Q16790); assay: stop-flow CA inhibition assay, hCA IX; conditions: for S(I/IX) selectivity: ratio Ki hCA I / Ki hCA IX; for S(II/IX) selectivity: ratio Ki hCA II / Ki hCA IX
hCA IX [3] = target: T2, hCA IX; assay: biochemical
hCA II = hCA II (Homo sapiens, UniProt P00918); assay: biochemical
hCA XII [4] = target: T1, hCA XII; assay: biochemical

T1 sequence (O43570 25-354): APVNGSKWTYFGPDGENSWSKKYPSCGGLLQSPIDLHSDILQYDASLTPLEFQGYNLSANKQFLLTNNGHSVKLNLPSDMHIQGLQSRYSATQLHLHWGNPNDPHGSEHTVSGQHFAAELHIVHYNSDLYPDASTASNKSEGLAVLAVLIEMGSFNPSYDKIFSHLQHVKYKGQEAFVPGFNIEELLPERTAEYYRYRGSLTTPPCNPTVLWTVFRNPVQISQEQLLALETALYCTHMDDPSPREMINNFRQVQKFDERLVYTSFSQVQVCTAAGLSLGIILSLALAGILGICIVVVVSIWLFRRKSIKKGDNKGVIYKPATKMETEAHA
Chain of hCA I (P00915 whole entry): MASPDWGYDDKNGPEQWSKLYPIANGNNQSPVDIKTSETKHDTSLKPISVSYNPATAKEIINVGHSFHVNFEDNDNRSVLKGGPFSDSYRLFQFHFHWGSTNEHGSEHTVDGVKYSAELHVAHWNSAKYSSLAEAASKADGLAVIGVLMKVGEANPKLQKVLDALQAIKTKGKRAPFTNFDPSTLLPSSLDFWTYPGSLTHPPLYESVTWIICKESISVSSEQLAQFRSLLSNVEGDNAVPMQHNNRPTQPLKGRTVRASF

For `NS(=O)(=O)c1ccc(NC(=O)Nc2cccc3ccccc23)cc1` [Compound 1, 4-[3-(Naphthalen-1-yl)ureido]benzenesulfonamide], the “S(I/XII) selectivity” value (hCA XII [1]) was 15.66, the “S(II/XII) selectivity” value (hCA XII [1]) was 2.16 and the pKi (hCA I) was 6.61. For the same molecule, the “S(I/IX) selectivity” value (hCA IX [2]) was 5.66, the “S(II/IX) selectivity” value (hCA IX [2]) was 0.78 and the pKi (hCA IX [3]) was 7.37. The pKi (hCA II) was 7.47 and the pKi (hCA XII [4]) was 7.81.
In the case of `NS(=O)(=O)c1ccc(NC(=O)Nc2ccc(Cc3ccccc3)cc2)cc1` [Compound 2, 4-[3-(4-Benzylphenyl)ureido]benzenesulfonamide], the melting point was 230 to 232 °C.
With `NS(=O)(=O)c1ccc(NC(=O)Nc2ccccc2Cc2ccccc2)cc1` [Compound 3] the melting point was 219 to 221 °C.
`COc1ccc(-c2ccccc2)cc1NC(=O)Nc1ccc(S(N)(=O)=O)cc1` [Compound 4] showed a melting point of 271 to 272 °C, a pKi (hCA I) of 5.18 and a pKi (hCA II) of 5.30.
Molecule `COc1ccc(NC(=O)Nc2ccc(S(N)(=O)=O)cc2)cc1` [Compound 5] has a melting point of 227 to 229 °C.
In the case of `COc1cccc(NC(=O)Nc2ccc(S(N)(=O)=O)cc2)c1` [Compound 6, 4-[3-(3-Methoxyphenyl)ureido]benzenesulfonamide], the pKi (hCA IX [3]) was 6.68 and the pKi (hCA XII [4]) was 7.04.
For `NS(=O)(=O)c1ccc(NC(=O)Nc2cccc(F)c2)cc1` [Compound 7, 4-[3-(3-Fluorophenyl)ureido]benzenesulfonamide], the melting point was 240 to 241 °C.
For `CCNC(=O)Nc1ccc(S(N)(=O)=O)cc1` [Compound 8, 4-(3-Ethylureido)benzenesulfonamide], the melting point was 229 to 231 °C.
In the case of `CC(C)NC(=O)Nc1ccc(S(N)(=O)=O)cc1` [Compound 9, 4-(3-Isopropylureido)benzenesulfonamide], the melting point was 221 to 223 °C, the pKi (hCA I) was 6.35 and the pKi (hCA IX [3]) was 6.74. The pKi (hCA XII [4]) was 7.34.
Work on `CCCCNC(=O)Nc1ccc(S(N)(=O)=O)cc1` [Compound 10, 4-(3-Butylureido)benzenesulfonamide] yielded a melting point of 194 to 196 °C.
`CCCCCCNC(=O)Nc1ccc(S(N)(=O)=O)cc1` [Compound 11, 4-(3-Hexylureido)benzenesulfonamide] gave a melting point of 202 to 203 °C.
In the case of `NS(=O)(=O)c1ccc(NC(=O)NC(=O)c2ccccc2)cc1` [Compound 12, N-[(4-Sulfamoylphenyl)carbamoyl]benzamide], the melting point was 262 to 264 °C, the “S(I/XII) selectivity” value (hCA XII [1]) was 14.84 and the “S(II/XII) selectivity” value (hCA XII [1]) was 3.27. For the same molecule, the pKi (hCA I) was 6.02, the “S(I/IX) selectivity” value (hCA IX [2]) was 4.57 and the “S(II/IX) selectivity” value (hCA IX [2]) was 1.01. For the same molecule, the pKi (hCA IX [3]) was 6.68, the pKi (hCA II) was 6.68 and the pKi (hCA XII [4]) was 7.19.
For `CCOC(=O)c1ccc(NC(=O)Nc2ccc(S(N)(=O)=O)cc2)cc1` [Compound 13, Ethyl 4-[3-(4-sulfamoylphenyl)ureido]benzoate], the melting point was 261 to 263 °C.
`NS(=O)(=O)c1ccc(NC(=O)Nc2ccc(C(=O)O)cc2)cc1` [Compound 14, 4-[3-(4-Sulfamoylphenyl)ureido]benzoic acid] showed a melting point of 310 to 313 °C.
Molecule `NS(=O)(=O)c1ccc(NC(=O)Nc2cc(Cl)ccc2Oc2ccccc2)cc1` [Compound 15, 4-[3-(5-Chloro-2-phenoxyphenyl)ureido]benzenesulfonamide] has a melting point of 209 °C.

— PMC10707797, “Ureidobenzenesulfonamides as Selective Carbonic Anhydrase I, IX, and XII Inhibitors” (Molecules, 2023)
